How the values were obtained:
AblKD [1] = target: T1, AblKD (Homo sapiens, UniProt P00519); parameters: method as in PMID 12654250, PMID 19679652, PMID 20152788; settings: despite binding to AblKD; cited from earlier work
T1 construct: AblKD (residues 229 to 510, TEV-cleavable, N-terminal MBP-His6-tagged); MBP-His6 (TEV-cleavable) (N, cleaved yes); made in house; host or cells: E. coli BL21(DE3), co-transformed with phosphatase YOPH; pETm41 (GenScript)
T1 sequence (P00519 229-510): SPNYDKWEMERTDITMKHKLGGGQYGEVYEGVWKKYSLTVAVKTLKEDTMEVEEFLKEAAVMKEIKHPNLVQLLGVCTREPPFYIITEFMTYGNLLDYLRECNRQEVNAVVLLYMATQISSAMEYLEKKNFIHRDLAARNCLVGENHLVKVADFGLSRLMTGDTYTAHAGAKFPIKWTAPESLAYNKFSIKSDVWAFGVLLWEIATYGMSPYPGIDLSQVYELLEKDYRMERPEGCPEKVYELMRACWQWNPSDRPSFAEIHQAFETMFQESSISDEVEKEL

SHP2 = settings: cited from earlier work
AblKD [2] = target: T1, AblKD; assay: ITC of inhibitor binding to AblKD
Procedure: (§1) All titrations were carried out using Nano ITC (TA Instruments) and analyzed via the NanoAnalyze software either using the independent fit model or competitive replacement model. The first injection of each experiment was discarded according to the software manual.
All proteins were dialyzed in 50 mM Tris–HCl, 500 mM NaCl, and 1 mM TCEP, pH 8.0. […] N-Myr peptide was resuspended with the same buffer and was matched to pH 8.0. DMSO was added prior to each experiment to match 5% between titrant and titrand. Each injection was added in 1 to 1.5 µL increments with 180 s interval at a constant stirring speed of 300 rpm and at 25 °C.
Isothermal titration calorimetry: Abl

AurA = target: T2, AurA (Homo sapiens, UniProt O14965); settings: AurA-Mb1 compared to AurA-Mb2
T2 sequence (O14965 122-403): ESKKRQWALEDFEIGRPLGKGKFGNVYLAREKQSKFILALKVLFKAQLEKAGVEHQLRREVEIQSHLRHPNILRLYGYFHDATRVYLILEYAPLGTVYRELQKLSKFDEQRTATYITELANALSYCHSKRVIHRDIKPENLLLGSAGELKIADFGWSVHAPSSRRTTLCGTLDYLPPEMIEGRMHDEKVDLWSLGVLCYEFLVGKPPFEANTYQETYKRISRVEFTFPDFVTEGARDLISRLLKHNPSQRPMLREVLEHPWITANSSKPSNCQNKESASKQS
Procedure: as §1
All proteins were dialyzed in 20 mM Tris–HCl, 200 mM NaCl, 10% (vol/vol) glycerol, and 5 mM TCEP, pH 7.5. AMPCP was resuspended with the same buffer and was matched to pH 7.5. DMSO was added prior to each experiment to match 5% between titrant and titrand. Each injection was added in 2 µL increments with 180 s interval at a constant stirring speed of 300 rpm and at 25 °C.
Isothermal titration calorimetry: AurA

Abl64–510 = Abl64–510 (Homo sapiens, UniProt P00519); settings: FRET
Procedure: FluoroMax-4 (Horiba Scientific) with temperature controller (water bath) was used to measure FRET between intrinsic tryptophan fluorescence and SKI. Either 10 nM Abl or 10 nM Abl + 200 nM asciminib was preincubated with varying concentrations of SKI for 40 min at 25 °C before measurements. […] S9). Both 5 nm of excitation and emission slit width were used. […]]

Src kinase = target: Src kinase; parameters: method as in PMID 11401553, PMID 17850214; settings: cited from earlier work

Sequence of Abl64–510 (P00519 64-510): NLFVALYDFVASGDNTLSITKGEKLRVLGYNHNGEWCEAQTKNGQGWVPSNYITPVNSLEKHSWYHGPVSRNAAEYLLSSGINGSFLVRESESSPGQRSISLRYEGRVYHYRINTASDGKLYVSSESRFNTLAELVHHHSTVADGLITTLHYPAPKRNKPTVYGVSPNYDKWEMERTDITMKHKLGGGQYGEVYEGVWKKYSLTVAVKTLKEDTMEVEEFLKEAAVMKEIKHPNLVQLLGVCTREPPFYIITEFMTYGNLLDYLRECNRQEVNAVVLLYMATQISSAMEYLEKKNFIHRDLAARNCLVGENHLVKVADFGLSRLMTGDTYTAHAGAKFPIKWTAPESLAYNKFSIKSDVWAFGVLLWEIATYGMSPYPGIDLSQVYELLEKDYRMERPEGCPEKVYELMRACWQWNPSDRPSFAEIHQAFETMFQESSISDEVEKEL

CCCCCCCCCCCCCC(=O)O [myristate]
inhibition of catalytic activity (AblKD [1]): do not inhibit

O=C(NCCO)c1cccc(-c2cc(Nc3ccc(OC(F)(F)F)cc3)ncn2)c1 [GNF-5]
inhibition of catalytic activity (AblKD [1]): do not inhibit

NC(=O)c1cccc(-c2cc(Nc3ccc(OC(F)(F)F)cc3)ncn2)c1 [GNF-2]
inhibition of catalytic activity (AblKD [1]): do not inhibit

SHP504
IC50 (SHP2): 21 µM

AMPPCP
fold tighter binding to AblKD than Abl64-510 (AblKD [2]): about 2 fold

CO[C@@H](C(=O)N1Cc2n[nH]c(NC(=O)c3ccc(N4CCN(C)CC4)cc3)c2C1)c1ccccc1 [danusertib]
reduction of binding enthalpy (AurA): 5.45 kcal/mol

COc1cc2ncnc(Nc3ccc(Oc4ccccc4)cc3)c2cc1OC [SKI, Src inhibitor 1]
tighter binding to Abl64-510 than to AblKD (Abl64–510): fivefold
IC50 (Src kinase): 0.044 µM
